Broadly, the IC50 is the concentration needed to halve the response being measured. A higher IC50 goes with weaker potency in that assay.

The first test deals with HUVEC. Put plainly: Cytotoxicity against human HUVEC after 48 hrs by MTT assay. The test is classed as cell-based.
Details: not given
A general note: Tetrazolium assays rely on reduction of a dye to a coloured formazan, in cell work by metabolically active cells.
Consider `CCOP(=O)(OCC)C(NC(=O)c1cc(O)c2c(c1)C(=O)c1cccc(O)c1C2=O)c1ccccc1F` (centres undefined), for which the 50% inhibitory concentration (IC50) was greater than 100 µM.
`CCOP(=O)(OCC)C(NC(=O)c1cc(O)c2c(c1)C(=O)c1cccc(O)c1C2=O)c1ccccc1Br` (centres undefined) yielded an IC50 greater than 100 µM.
Same read-out and setting: as for `CCOP(=O)(OCC)C(NC(=O)c1cc(O)c2c(c1)C(=O)c1cccc(O)c1C2=O)c1ccccc1OC` (centres undefined), the figure is greater than 100 µM.
The same measure, in the same setting: as for `CCOP(=O)(OCC)C(NC(=O)c1cc(O)c2c(c1)C(=O)c1cccc(O)c1C2=O)c1cccc(Cl)c1` (centres undefined), the figure is greater than 100 µM.
The same measure, in the same setting: as for `CCOP(=O)(OCC)C(NC(=O)c1cc(O)c2c(c1)C(=O)c1cccc(O)c1C2=O)c1ccc(Br)cc1` (centres undefined), the figure is greater than 100 µM.
In turn, `CCOP(=O)(OCC)C(NC(=O)c1cc(O)c2c(c1)C(=O)c1cccc(O)c1C2=O)c1c2ccccc2cc2ccccc12` (centres undefined) registered an IC50 greater than 100 µM.
Still for that read-out and setting: under `CCOP(=O)(OCC)C(NC(=O)c1cc(O)c2c(c1)C(=O)c1cccc(O)c1C2=O)c1ccc(C)cc1` (centres undefined) stands greater than 100 µM; under `CCOP(=O)(OCC)C(NC(=O)c1cc(O)c2c(c1)C(=O)c1cccc(O)c1C2=O)c1ccc(OC)cc1` (centres undefined), greater than 100 µM.
The same measure, in the same setting: under `CCOP(=O)(OCC)C(NC(=O)c1cc(O)c2c(c1)C(=O)c1cccc(O)c1C2=O)c1ccc(F)cc1` (centres undefined) stands greater than 100 µM.

A further test relates to HCT-116. Put plainly: Cytotoxicity against human HCT116 cells after 48 hrs by MTT assay. The note with it: HCT-116, 48 h. The test is classed as functional, cell-based.
`CCOP(=O)(OCC)C(NC(=O)c1cc(O)c2c(c1)C(=O)c1cccc(O)c1C2=O)c1ccccc1F` (centres undefined): it took 36.6 µM to reach half-maximal inhibition (IC50).
The same measure, in the same setting: as for `CCOP(=O)(OCC)C(NC(=O)c1cc(O)c2c(c1)C(=O)c1cccc(O)c1C2=O)c1ccccc1Br` (centres undefined), the figure is 48.9 µM.
Regarding `CCOP(=O)(OCC)C(NC(=O)c1cc(O)c2c(c1)C(=O)c1cccc(O)c1C2=O)c1ccccc1OC` (centres undefined), the midpoint of inhibition, the IC50, lay at 8.37 µM.
On the same count and under the same terms, under `CCOP(=O)(OCC)C(NC(=O)c1cc(O)c2c(c1)C(=O)c1cccc(O)c1C2=O)c1cccc(Cl)c1` (centres undefined) stands 22.4 µM; under `CCOP(=O)(OCC)C(NC(=O)c1cc(O)c2c(c1)C(=O)c1cccc(O)c1C2=O)c1ccc(Br)cc1` (centres undefined), 65.5 µM.
Take `CCOP(=O)(OCC)C(NC(=O)c1cc(O)c2c(c1)C(=O)c1cccc(O)c1C2=O)c1c2ccccc2cc2ccccc12` (centres undefined): the IC50 was greater than 100 µM.
As for `CCOP(=O)(OCC)C(NC(=O)c1cc(O)c2c(c1)C(=O)c1cccc(O)c1C2=O)c1ccc(C)cc1` (centres undefined), the IC50 amounted to 54.3 µM.
Still for that read-out and setting: as for `CCOP(=O)(OCC)C(NC(=O)c1cc(O)c2c(c1)C(=O)c1cccc(O)c1C2=O)c1ccc(OC)cc1` (centres undefined), the figure is 22.1 µM.
On the same count and under the same terms, under `CCOP(=O)(OCC)C(NC(=O)c1cc(O)c2c(c1)C(=O)c1cccc(O)c1C2=O)c1ccc(F)cc1` (centres undefined) stands 57.8 µM.

Test system in the next test: not listed separately
Put plainly: Cytotoxicity against human SPCA2 cells after 48 hrs by MTT assay. The test is classed as functional, cell-based. The note with it: SPCA2, 48 h.
Compound `CCOP(=O)(OCC)C(NC(=O)c1cc(O)c2c(c1)C(=O)c1cccc(O)c1C2=O)c1ccccc1F` (centres undefined) gave an IC50 of 79.9 µM.
Still for that read-out and setting: as for `CCOP(=O)(OCC)C(NC(=O)c1cc(O)c2c(c1)C(=O)c1cccc(O)c1C2=O)c1ccccc1Br` (centres undefined), the figure is 85.5 µM; as for `CCOP(=O)(OCC)C(NC(=O)c1cc(O)c2c(c1)C(=O)c1cccc(O)c1C2=O)c1ccccc1OC` (centres undefined), 15 µM; as for `CCOP(=O)(OCC)C(NC(=O)c1cc(O)c2c(c1)C(=O)c1cccc(O)c1C2=O)c1cccc(Cl)c1` (centres undefined), 77 µM.
The same measure, in the same setting: as for `CCOP(=O)(OCC)C(NC(=O)c1cc(O)c2c(c1)C(=O)c1cccc(O)c1C2=O)c1ccc(Br)cc1` (centres undefined), the figure is 88.2 µM; as for `CCOP(=O)(OCC)C(NC(=O)c1cc(O)c2c(c1)C(=O)c1cccc(O)c1C2=O)c1c2ccccc2cc2ccccc12` (centres undefined), greater than 100 µM; as for `CCOP(=O)(OCC)C(NC(=O)c1cc(O)c2c(c1)C(=O)c1cccc(O)c1C2=O)c1ccc(C)cc1` (centres undefined), 74.4 µM.
For `CCOP(=O)(OCC)C(NC(=O)c1cc(O)c2c(c1)C(=O)c1cccc(O)c1C2=O)c1ccc(OC)cc1` (centres undefined), the IC50 amounted to 38.9 µM.
The same measure, in the same setting: under `CCOP(=O)(OCC)C(NC(=O)c1cc(O)c2c(c1)C(=O)c1cccc(O)c1C2=O)c1ccc(F)cc1` (centres undefined) stands 24.3 µM.

A further test deals with HeLa. Put plainly: Cytotoxicity against human HeLa cells after 48 hrs by MTT assay. The test is classed as functional, cell-based.
Details: not given
Take `CCOP(=O)(OCC)C(NC(=O)c1cc(O)c2c(c1)C(=O)c1cccc(O)c1C2=O)c1ccccc1F` (centres undefined): the concentration for half-maximal inhibition (IC50) was 94.2 µM.
The same measure, in the same setting: under `CCOP(=O)(OCC)C(NC(=O)c1cc(O)c2c(c1)C(=O)c1cccc(O)c1C2=O)c1ccccc1Br` (centres undefined) stands 79.6 µM; under `CCOP(=O)(OCC)C(NC(=O)c1cc(O)c2c(c1)C(=O)c1cccc(O)c1C2=O)c1ccccc1OC` (centres undefined), 25.6 µM; under `CCOP(=O)(OCC)C(NC(=O)c1cc(O)c2c(c1)C(=O)c1cccc(O)c1C2=O)c1cccc(Cl)c1` (centres undefined), 73.2 µM.
Still for that read-out and setting: as for `CCOP(=O)(OCC)C(NC(=O)c1cc(O)c2c(c1)C(=O)c1cccc(O)c1C2=O)c1ccc(Br)cc1` (centres undefined), the figure is 98.2 µM; as for `CCOP(=O)(OCC)C(NC(=O)c1cc(O)c2c(c1)C(=O)c1cccc(O)c1C2=O)c1c2ccccc2cc2ccccc12` (centres undefined), greater than 100 µM.
With `CCOP(=O)(OCC)C(NC(=O)c1cc(O)c2c(c1)C(=O)c1cccc(O)c1C2=O)c1ccc(C)cc1` (centres undefined), the IC50 worked out at 89 µM.
Still for that read-out and setting: under `CCOP(=O)(OCC)C(NC(=O)c1cc(O)c2c(c1)C(=O)c1cccc(O)c1C2=O)c1ccc(OC)cc1` (centres undefined) stands 40.1 µM; under `CCOP(=O)(OCC)C(NC(=O)c1cc(O)c2c(c1)C(=O)c1cccc(O)c1C2=O)c1ccc(F)cc1` (centres undefined), 95.4 µM.

Another test concerns CNE. Put plainly: Cytotoxicity against human CNE cells after 48 hrs by MTT assay. The test is classed as functional, cell-based.
Details: not given
Regarding `CCOP(=O)(OCC)C(NC(=O)c1cc(O)c2c(c1)C(=O)c1cccc(O)c1C2=O)c1ccccc1F` (centres undefined), inhibition was half-maximal at 67.6 µM (IC50).
The compound `CCOP(=O)(OCC)C(NC(=O)c1cc(O)c2c(c1)C(=O)c1cccc(O)c1C2=O)c1ccccc1Br` (centres undefined) yielded an IC50 of 55.7 µM.
On the same count and under the same terms, as for `CCOP(=O)(OCC)C(NC(=O)c1cc(O)c2c(c1)C(=O)c1cccc(O)c1C2=O)c1ccccc1OC` (centres undefined), the figure is 28.6 µM; as for `CCOP(=O)(OCC)C(NC(=O)c1cc(O)c2c(c1)C(=O)c1cccc(O)c1C2=O)c1cccc(Cl)c1` (centres undefined), 45.6 µM.
As for `CCOP(=O)(OCC)C(NC(=O)c1cc(O)c2c(c1)C(=O)c1cccc(O)c1C2=O)c1ccc(Br)cc1` (centres undefined), 42.5 µM corresponded to half-maximal inhibition (IC50).
Same read-out and setting: under `CCOP(=O)(OCC)C(NC(=O)c1cc(O)c2c(c1)C(=O)c1cccc(O)c1C2=O)c1c2ccccc2cc2ccccc12` (centres undefined) stands greater than 100 µM.
The same measure, in the same setting: under `CCOP(=O)(OCC)C(NC(=O)c1cc(O)c2c(c1)C(=O)c1cccc(O)c1C2=O)c1ccc(C)cc1` (centres undefined) stands 79.4 µM.
The compound `CCOP(=O)(OCC)C(NC(=O)c1cc(O)c2c(c1)C(=O)c1cccc(O)c1C2=O)c1ccc(OC)cc1` (centres undefined) showed an IC50 of 42.9 µM.
Still for that read-out and setting: under `CCOP(=O)(OCC)C(NC(=O)c1cc(O)c2c(c1)C(=O)c1cccc(O)c1C2=O)c1ccc(F)cc1` (centres undefined) stands 34.6 µM.

The test system of another test is HepG2. Put plainly: Cytotoxicity against human HepG2 cells after 48 hrs by MTT assay. The test is classed as functional, cell-based. The note with it: HepG2, 48 h.
`CCOP(=O)(OCC)C(NC(=O)c1cc(O)c2c(c1)C(=O)c1cccc(O)c1C2=O)c1ccccc1F` (centres undefined): the half-inhibitory concentration (IC50) turned out to be 71.2 µM.
The same measure, in the same setting: as for `CCOP(=O)(OCC)C(NC(=O)c1cc(O)c2c(c1)C(=O)c1cccc(O)c1C2=O)c1ccccc1Br` (centres undefined), the figure is 88.3 µM.
The same measure, in the same setting: as for `CCOP(=O)(OCC)C(NC(=O)c1cc(O)c2c(c1)C(=O)c1cccc(O)c1C2=O)c1ccccc1OC` (centres undefined), the figure is 30 µM; as for `CCOP(=O)(OCC)C(NC(=O)c1cc(O)c2c(c1)C(=O)c1cccc(O)c1C2=O)c1cccc(Cl)c1` (centres undefined), 72 µM; as for `CCOP(=O)(OCC)C(NC(=O)c1cc(O)c2c(c1)C(=O)c1cccc(O)c1C2=O)c1ccc(Br)cc1` (centres undefined), 94.2 µM.
The same measure, in the same setting: as for `CCOP(=O)(OCC)C(NC(=O)c1cc(O)c2c(c1)C(=O)c1cccc(O)c1C2=O)c1c2ccccc2cc2ccccc12` (centres undefined), the figure is greater than 100 µM.
`CCOP(=O)(OCC)C(NC(=O)c1cc(O)c2c(c1)C(=O)c1cccc(O)c1C2=O)c1ccc(C)cc1` (centres undefined): 77.9 µM corresponded to half-maximal inhibition (IC50).
Same read-out and setting: under `CCOP(=O)(OCC)C(NC(=O)c1cc(O)c2c(c1)C(=O)c1cccc(O)c1C2=O)c1ccc(OC)cc1` (centres undefined) stands 44.4 µM.
For `CCOP(=O)(OCC)C(NC(=O)c1cc(O)c2c(c1)C(=O)c1cccc(O)c1C2=O)c1ccc(F)cc1` (centres undefined), the IC50 is 59.4 µM.

The values are drawn from ChEMBL document CHEMBL3102831 (Bioorg Med Chem Lett, 2014).
